Results: patent US8178118B2, “Magnesium compositions and uses thereof for cognitive function” (Magceutics, Inc., priority 2007, dated 2012)

Columns and labels:
[1] = tested on: young, aging and aged rats
Experimental: Twenty 2-month old, male Sprague Dawley (SD) rats were housed in a temperature-controlled room (22° C. to 25° C.) with a dark period from 08:00 pm to 08:00 am daily. […] Over 7 days before the training and trial period began, each rat was handled and habituated to the maze and to Kellogg's Froot Loop cereal.
Each rat underwent a test of one trial, followed by an interval of 10-minutes, followed by another trial, and so on, for a total of 6 trials in one day. In each trial, each rat went through a sample run in the maze, followed by an interval of 15 seconds, followed by a choice run in the maze. In the sample run, the subject rat was forced to go to the left or to the right by the presence of a block, according to a pseudorandom sequence (with an equal number of left turns and right turns, and no more than two consecutive turns in the same direction). As a reward, Froot Loop cereal was available in the food well at the end of the run, regardless of the direction that was taken by virtue of the block. In the choice run, the block that had been present in the preceding sample run was removed, and the rat was allowed to choose to go to the left or to the right. As a reward, Froot Loop cereal was available in the food well at the end of the run, only when the rat had made a “correct choice” by choosing the direction opposite that taken in the preceding sample run. […]
On the first day (designated day 0) of the feeding of the two groups, as just described, each rat underwent a preliminary test of one trial, followed by an interval of 10 minutes, followed by another trial, and so on, for a total of 4 trials in one day. […] In this preliminary test, the choice accuracy level, or ratio of correct choices made, co, to the number of number of trials in the test, no, was determined for each rat. […]
Three groups of animals (young, aging, and magnesium-treated aging rats) were used. […] Spatial working memory was assessed using a T-maze non-matching-to-place task. […] Spatial working memory was first assessed on an elevated T-maze. […]

[2] = tested on: rats; test: novel object recognition test in rats; assay type: in vivo, rat
Experimental: In this example, the effect of magnesium supplementation on recognition memory was tested. Three groups of rats were used in these experiments: 1) young rats (three months old); aging rats (12-14 months old), and; 3) magnesium-treated aging rats (12-14 months old, diet supplemented with 6 mg/kg MgCl2 from 8 months of age). We used experimentally naive, female, Sprague-Dawley young […], aging (12-14 month old) and […] rats (Charles River) at the beginning of the behavior experiments. They were housed two per cage with continuous access to food and water under a 12:12 light-dark cycle, with light onset at 8:00 a.m. […] All experiments involving animals were approved by the Massachusetts Institute of Technology's and Tsinghua University Committees on Animal Care.
The three groups of rats were tested for recognition memory using an object recognition test with a single exposure to the object during training. The task is based on the natural tendency of rodents to explore new objects and tests the animals' memory capacity for distinguishing novel versus familiar objects.
Briefly, the rats were first individually habituated to the personnel and then to open-field arena during 2 weeks. […] The retention intervals were 10 min and 24 hours. Objects were cleaned thoroughly between trials with 20% ethanol solution to ensure the absence of olfactory cues. The particular objects for a given trial were randomly determined, but each object was used for only one trial per rat. Memory of the familiar object is associated with increased exploration of the new object and an exploration index (% correct) is calculated as new object inspection time/30.
In this example, the effect of magnesium supplementation on memory consolidation was studied. […]
Briefly, the rats were first individually habituated to the personnel and then to open-field arena during 2 weeks. […] The particular objects for a given trial were randomly determined, but each object was used for only one trial per rat. […]

[3] = magnesium absorption rate in rats (intake versus fecal excretion, ICP-AES); conditions: FIG. 4, Example 5, Mg gluconate in skim milk or water with 5 weight percent lactose, MgCl2 in water
Experimental: Fifty 3-month old, male Sprague Dawley (SD) rats were divided into five groups of ten rats. Rats of this age and older are considered adult. Each of the rats was placed in a separate metabolic cage equipped with urine- and feces-collecting wells. All of the rats were maintained in a temperature-controlled room (22° C. to 25° C.) with a dark period from 08:00 pm to 08:00 am daily. From day 1 through day 3, each rat was fed daily 15 g of magnesium-free food and de-ionized water. […] The medium was skim milk for Composition 1 and Group 1, milk prepared from powdered milk, by diluting the powdered milk with water to obtain a composition like that of skim milk, for Composition 2 and Group 2, 1% milk cream in water for Composition 3 and Group 3, water comprising 5 weight percent lactose for Composition 4 and Group 4, and water for the Control Composition and Control Group. […]
From day 4 through day 10, urine from each rat was collected daily. The collected urine from each rat was then pooled together and the total volume of the pooled urine from each rat was recorded. The pooled urine from each rat, in an amount of […], was analyzed for magnesium content using an inductively coupled plasma-atomic emission spectrometer (ICP-AES). […] The pooled feces from each rat, in an amount of 0.5 g, were analyzed for magnesium content using an ICP-AES. […]

[4] = tested on: diabetic patients; conditions: nearly 1 g of magnesium daily for 1 month; cited from earlier work
[5] = tested on: mice genetically altered to present symptoms of Alzheimer's disease (AD); test: modified Morris water maze test in AD mice; assay type: in vivo, mouse; conditions: AD mice aged 13 months, FIG. 16
Experimental: Another group, the control group, of 10 mice that were genetically altered to present symptoms of AD were fed a Control Diet, a diet of normal solid food and water, for 30 days.
The pool used was a pool of water in a circular metal tank (150 cm in diameter and 50 cm in depth) having a water height of 30 cm and a water temperature that was maintained at ˜22° C. The pool was placed in a moderately lit area and surrounded by a black curtain. An acrylic platform (15 cm in diameter) was placed 2 cm below the surface of the water in the middle of one quadrant of the pool, equidistant from the center and the edge of the pool. Outside the pool, a cue was placed so as to be visible to a mouse in the maze, allowing a mouse to use it as a landmark for spatial orientation. The cue remained unchanged throughout the test period.
On the first day of the training and testing period, the water in the pool was transparent, such that the platform was visible. Each mouse was trained to swim towards the platform and to stand on the platform so as not to be submerged in the pool. […] The amount of time the mouse took to find the platform, referred to as “escape latency,” was recorded for each trial.
On the second day of the training and testing period, a small quantity of milk was added to the water in the pool, such that the pool was opaque and the platform was no longer visible. […]

[6] = tested on: AD mice; test: physical motility (swimming speed) during water maze test; assay type: in vivo, mouse; conditions: 7 months and 15 months of treatment, FIG. 21
Experimental: The swimming speed of each mice is calculated from off-analysis.

[7] = brain (brainstem) magnesium concentration in AD mice, ICP-OES; assay type: in vivo, mouse; conditions: AD mice on magnesium diet from 5 month to 21 month of age, FIG. 26A

[Cl-].[Cl-].[Mg+2] [MgCl2, magnesium chloride]
asymptotic choice accuracy level after 8 days of training ([1]; all three groups (young, aging, magnesium-treated aging rats)): ~94% | learning in non-matching-to-place task, 15 sec delay ([1]; magnesium-treated aging rats versus aging rats, p<0.05): performed significantly better from their first trials | spatial working memory with increased delay between sample and choice trials ([1]; magnesium-treated aging rats, p<0.05): significantly enhanced the performance of the aging rats at 2 and 5 min delays | novel object exploration preference, 10 minute retention interval ([2]; aging rats (12-14 months old), 6 mg/kg MgCl2 from 8 months of age, single exposure training, P<0.0001): preferentially explored the novel object to the same extent as young rats | ability to distinguish novel versus familiar objects after 24 hours ([2]; aging rats, single exposure training, all groups): lose there ability to distinguish novel versus familiar objects | preference for the novel object, 24-hour retention interval after spaced training ([2]; two training sessions separated by 10 minutes, magnesium-treated aging rats): retained a high level of preference | magnesium absorption rate of the higher dosage compositions (magnesium loading capacity) [3]: less desirable

[O]=[Mg] [magnesium oxide]
increase of serum magnesium level [4]: about 10% | metabolic control [4]: only minor improvement in metabolic control

CC12CC3CC(C)(C1)CC(N)(C3)C2 [memantine]
reduction of the effects of AD on learning capacity [5]: better at reducing the effects of AD on learning capacity than aricept

magnesium
mobility during the water maze test [6]: greatly increased mobility | relation of magnesium intake to brain magnesium [7]: linearly correlated to the amount of brain magnesium

magnesium gluconate
magnesium absorption rate of the higher dosage compositions (magnesium loading capacity) [3]: suitably close to those associated with the lower dosage compositions
